The results in this text go back to patent US11214803B2, “Modulators of YAP1 expression” (Ionis Pharmaceuticals, Inc., priority 2019, dated 2022).

Strand notation (5' to 3'): a small letter for the sugar, then the base; units joined by * are phosphorothioate-linked, units joined directly phosphodiester-linked; [ ] holds rarer units or linkages, { } end groups; capitals alone tell only the bases. k = constrained ethyl (cEt); [5mC] = 5-methylcytosine; d = 2'-deoxy (DNA)

The first data set has as its system Yap1 mRNA. Nature of the data set: Antisense inhibition of human Yap1 in A-431 cells by cEt gapmers, single dose (Example 3, RTS36584). Particulars: Table 8; A-431 cells, 5,000 cells per well, free uptake, 2,000 nM, approximately 48 hours; RTS36584; normalized to RIBOGREEN; Yap1 mRNA relative to untreated control cells. Type of data set: cell-based. Summed up: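 Free uptake, 2,000 nM, ~48 h, A-431 cells. Gapmers: 16-mer 3-10-3 cEt wings, PS backbone, 5-MeC. Readout qRT-PCR, RiboGreen-normalized, % UTC.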
Regarding “958363 (antisense kT*kG*kA*dG*d[5mC]*dT*d[5mC]*dG*dA*dA*d[5mC]*dA*dT*kG*k[5mC]*kT) [Compound 958363]”, the “YAP1 (% UTC)” value was determined as 70 % UTC.

Consider “958397 (antisense k[5mC]*kA*kG*dG*d[5mC]*dT*dA*dT*dT*dA*dA*dG*d[5mC]*kT*kG*kT) [Compound 958397]”, for which the “YAP1 (% UTC)” value is given as 127 % UTC.

In the case of “958386 (antisense kG*kG*k[5mC]*dG*d[5mC]*dG*d[5mC]*dG*d[5mC]*dA*dT*dT*dG*kT*kG*k[5mC]) [Compound 958386]”, the “YAP1 (% UTC)” value is 111 % UTC.

In the case of “958378 (antisense k[5mC]*kA*kT*d[5mC]*dA*dG*dT*dA*d[5mC]*dT*dG*dG*d[5mC]*k[5mC]*kT*kA) [Compound 958378]”, the “YAP1 (% UTC)” value worked out at 25 % UTC.

The data set is the same for the next values; noted with them: Table 9; A-431 cells, 5,000 cells per well, free uptake, 2,000 nM, approximately 48 hours; RTS36584; normalized to RIBOGREEN; Yap1 mRNA relative to untreated control cells.
For “958506 (kG*k[5mC]*kA*dG*dA*dT*dA*dA*dT*d[5mC]*dG*dA*dG*kA*kT*kT; antisense) [Compound 958506]”, the “YAP1 (% UTC)” value is 6 % UTC.

Regarding “958811 (k[5mC]*kA*k[5mC]*dT*dG*dA*dG*dG*d[5mC]*dA*d[5mC]*dG*dG*k[5mC]*k[5mC]*k[5mC]; antisense) [Compound 958811]”, the “YAP1 (% UTC)” value amounted to 92 % UTC.

For the substance “958806 (kT*kG*k[5mC]*d[5mC]*dT*dA*dG*dG*dG*dT*dT*d[5mC]*dT*kG*kT*kG; antisense) [Compound 958806]”, the “YAP1 (% UTC)” value is listed as 30 % UTC.

The same data set, now with this note: Table 10; A-431 cells, 5,000 cells per well, free uptake, 2,000 nM oligonucleotide, approx. 48 hours; primer probe set RTS36584; Yap1 mRNA normalized to RIBOGREEN, percent of untreated control.
As for “958517 (kT*k[5mC]*kT*dA*dG*dA*dA*d[5mC]*dA*d[5mC]*dT*dA*dA*kA*k[5mC]*kT; antisense) [Compound 958517]”, the “YAP1 (% UTC)” value amounted to 88 % UTC.

In the case of “958482 (antisense kT*k[5mC]*kT*dG*dT*dA*dT*dT*dA*dG*d[5mC]*d[5mC]*dT*kG*kA*kA) [Compound 958482]”, the “YAP1 (% UTC)” value is on record as 10 % UTC.

For “958677 (kA*kG*kA*dA*d[5mC]*dT*dT*dA*dG*dT*dT*d[5mC]*d[5mC]*k[5mC]*kT*kA; antisense) [Compound 958677]”, the “YAP1 (% UTC)” value was 51 % UTC.

Consider “958767 (antisense kA*k[5mC]*kG*dA*dA*dT*dA*dA*dG*dG*d[5mC]*dA*dT*kT*kA*kG) [Compound 958767]”, for which the “YAP1 (% UTC)” value turned out to be 6 % UTC.

With “958527 (kG*kT*kA*dA*dG*dT*dA*dA*dG*dA*dA*d[5mC]*dA*kA*kT*k[5mC]; antisense) [Compound 958527]”, the “YAP1 (% UTC)” value was found to be 4 % UTC.

For the substance “958647 (kT*kA*kG*dG*dA*dA*dG*dT*dT*dG*dT*dT*dG*kA*k[5mC]*k[5mC]; antisense) [Compound 958647]”, the “YAP1 (% UTC)” value was 11 % UTC.

The data set is the same for the next values; noted with them: Table 11; A-431 cells, 5,000 cells per well, free uptake, 2,000 nM oligonucleotide, approx. 48 hours; primer probe set RTS36584; Yap1 mRNA normalized to RIBOGREEN, percent of untreated control.
For the substance “958648 (kG*kA*kA*dT*dA*d[5mC]*dT*dG*dA*dG*dT*d[5mC]*dA*kG*kG*kA; antisense) [Compound 958648]”, the “YAP1 (% UTC)” value was 7 % UTC.

Regarding “958493 (kA*kA*kA*d[5mC]*dA*dG*dT*d[5mC]*dT*dT*d[5mC]*dA*dG*k[5mC]*k[5mC]*kT; antisense) [Compound 958493]”, the “YAP1 (% UTC)” value stood at 16 % UTC.

Consider “958718 (antisense kG*kA*kA*d[5mC]*dA*d[5mC]*dT*dA*dT*dA*dG*d[5mC]*dT*kT*kG*kG) [Compound 958718]”, for which the “YAP1 (% UTC)” value was 4 % UTC.

Still in this data set, the particulars now being: Table 12; A-431 cells, 5,000 cells per well, free uptake, 2,000 nM modified oligonucleotide, approx. 48 hours; RTS36584; normalized to RIBOGREEN; Yap1 mRNA relative to untreated control cells.
Take “958554 (kA*kA*k[5mC]*d[5mC]*dA*dT*dT*dA*dT*dT*dA*d[5mC]*dT*k[5mC]*k[5mC]*kT; antisense) [Compound 958554]”: the “YAP1 (% UTC)” value was 1 % UTC.

Turning to “958649 (kT*kG*k[5mC]*d[5mC]*dA*d[5mC]*dT*dG*dG*dT*dG*dA*dA*kT*kA*k[5mC]; antisense) [Compound 958649]”, the “YAP1 (% UTC)” value turned out to be 36 % UTC.

The data set is the same for the next values; noted with them: Table 13; A-431 cells, 5,000 cells per well, free uptake, 2,000 nM modified oligonucleotide, approx. 48 hours; RTS36584; normalized to RIBOGREEN; Yap1 mRNA relative to untreated control cells.
With “958595 (k[5mC]*k[5mC]*kA*d[5mC]*dA*dT*d[5mC]*dA*dA*dG*dG*d[5mC]*dT*kA*kT*kG; antisense) [Compound 958595]”, the “YAP1 (% UTC)” value turned out to be 8 % UTC.

“958585 (k[5mC]*kT*k[5mC]*dT*dA*dT*d[5mC]*dA*dA*dG*dG*dT*d[5mC]*k[5mC]*k[5mC]*k[5mC]; antisense) [Compound 958585]”: the “YAP1 (% UTC)” value was found to be 5 % UTC.

Consider “958645 (kG*k[5mC]*k[5mC]*d[5mC]*dA*dT*dA*dG*dT*dT*dG*dA*d[5mC]*kA*kG*kG; antisense) [Compound 958645]”, for which the “YAP1 (% UTC)” value is 54 % UTC.

Still in this data set, the particulars now being: Table 26; Yap1 mRNA by 3-10-3 cEt gapmers targeting SEQ ID NO.: 1, and 2; percent of untreated control.
In the case of “1075756 (kA*kT*kT*dT*dA*d[5mC]*d[5mC]*d[5mC]*dT*dG*d[5mC]*d[5mC]*dA*k[5mC]*kT*kT; antisense) [compound 1075756]”, the “YAP1 (% UTC)” value is reported as 49 % UTC.

In the case of “1076364 (antisense k[5mC]*k[5mC]*kA*dT*dA*dA*dA*dA*dG*dT*d[5mC]*d[5mC]*dA*k[5mC]*kT*kA) [compound 1076364]”, the “YAP1 (% UTC)” value came out at 30 % UTC.

Take “1074732 (k[5mC]*k[5mC]*kA*dG*dG*dT*dA*dT*d[5mC]*dA*d[5mC]*dA*dG*kT*kA*k[5mC]; antisense) [compound 1074732]”: the “YAP1 (% UTC)” value is recorded as 30 % UTC.

Turning to “1076300 (kA*kA*kA*dA*dA*dA*dT*dG*dG*d[5mC]*dT*dT*d[5mC]*kA*k[5mC]*kG; antisense) [compound 1076300]”, the “YAP1 (% UTC)” value is reported as 22 % UTC.

Consider “1076492 (kA*kA*kA*dA*dG*dA*dT*dA*d[5mC]*d[5mC]*d[5mC]*d[5mC]*d[5mC]*kA*kG*kT; antisense) [compound 1076492]”, for which the “YAP1 (% UTC)” value stood at 47 % UTC.

Take “1076108 (kA*kA*kA*d[5mC]*dA*dA*dA*dA*d[5mC]*d[5mC]*dG*dG*d[5mC]*kT*kT*kT; antisense) [compound 1076108]”: the “YAP1 (% UTC)” value stood at 116 % UTC.

Staying with this data set, now noted: Table 27; Yap1 mRNA by 3-10-3 cEt gapmers targeting SEQ ID NO.: 1, and 2; percent of untreated control.
Turning to “1076269 (kG*kA*k[5mC]*dG*dA*dA*dA*dA*dA*dT*dA*dT*dT*k[5mC]*kT*kT; antisense) [compound 1076269]”, the “YAP1 (% UTC)” value amounted to 28 % UTC.

“1074125 (kG*k[5mC]*kG*dG*d[5mC]*dT*dG*d[5mC]*dG*d[5mC]*d[5mC]*dT*d[5mC]*kG*kG*kG; antisense) [compound 1074125]”: the “YAP1 (% UTC)” value was found to be 94 % UTC.

In the case of “1075501 (k[5mC]*kA*kT*dA*dA*dA*dT*dT*dA*dA*dG*d[5mC]*d[5mC]*kA*kA*k[5mC]; antisense) [compound 1075501]”, the “YAP1 (% UTC)” value turned out to be 67 % UTC.

On to “1074541 (k[5mC]*kA*k[5mC]*dT*dA*dT*d[5mC]*d[5mC]*dA*d[5mC]*dA*dG*dT*kA*kA*kT; antisense) [compound 1074541]”, for which the “YAP1 (% UTC)” value is given as 23 % UTC.

Regarding “1076333 (antisense k[5mC]*kT*kA*dT*dA*dA*dG*dG*dA*dA*dT*dG*dG*k[5mC]*kA*kA) [compound 1076333]”, the “YAP1 (% UTC)” value stood at 97 % UTC.

“1075309 (antisense kT*kA*kA*dT*dT*dA*dA*dA*d[5mC]*dG*dA*dA*dA*k[5mC]*kA*k[5mC]) [compound 1075309]”: the “YAP1 (% UTC)” value was 110 % UTC.

Staying with this data set, now noted: Table 28; Yap1 mRNA as percent of untreated control; 3-10-3 cEt gapmers targeting SEQ ID NO.: 1, and 2.
In the case of “1074254 (antisense kA*kT*k[5mC]*dT*dG*dG*dG*dA*d[5mC]*dA*dG*d[5mC]*dA*kT*kG*kG) [compound 1074254]”, the “YAP1 (% UTC)” value stood at 13 % UTC.

Regarding “1076558 (kG*k[5mC]*k[5mC]*dA*dA*dA*dT*dA*dT*dT*dT*dA*dA*k[5mC]*kT*k[5mC]; antisense) [compound 1076558]”, the “YAP1 (% UTC)” value stood at 30 % UTC.

“1075822 (k[5mC]*kT*kT*dA*dG*dT*dA*dA*dT*dT*dG*d[5mC]*d[5mC]*k[5mC]*kA*kT; antisense) [compound 1075822]”: the “YAP1 (% UTC)” value is given as 35 % UTC.

The same data set, now with this note: Table 29; Yap1 mRNA as percent of untreated control; 3-10-3 cEt gapmers targeting SEQ ID NO.: 1, and 2.
“1076239 (kG*kT*kT*dT*dA*dA*dA*dA*dA*dA*dA*dA*d[5mC]*kG*kG*kG; antisense) [compound 1076239]”: the “YAP1 (% UTC)” value is listed as 75 % UTC.

Regarding “1076463 (kG*kA*kT*dT*dA*dG*dT*dA*dA*d[5mC]*dA*d[5mC]*dT*kG*kA*kT; antisense) [compound 1076463]”, the “YAP1 (% UTC)” value worked out at 38 % UTC.

The same data set, now with this note: Table 34; Yap1 mRNA as percent of untreated control; 3-10-3 cEt gapmers targeting SEQ ID NO: 1 and 2; single dose.
As to “1074324 (antisense kG*k[5mC]*kA*dG*dG*dG*d[5mC]*dT*dA*dA*d[5mC]*dT*d[5mC]*k[5mC]*kT*kG) [compound 1074324]”, the “YAP1 (% UTC)” value was 116 % UTC.

As to “1075700 (kG*k[5mC]*k[5mC]*dA*dA*dA*dT*dA*dA*dG*dA*dG*dG*kT*kA*kG; antisense) [compound 1075700]”, the “YAP1 (% UTC)” value is reported as 22 % UTC.

The same data set, now with this note: Table 35; Yap1 mRNA as percent of untreated control; 3-10-3 cEt gapmers targeting SEQ ID NO: 1 and 2; single dose.
On to “1074773 (k[5mC]*kA*kG*dT*dT*dA*dA*dA*dA*dT*d[5mC]*dT*dT*kA*kT*k[5mC]; antisense) [compound 1074773]”, for which the “YAP1 (% UTC)” value was found to be 94 % UTC.

As for “1075573 (antisense kA*kA*kG*dG*dA*dA*d[5mC]*d[5mC]*dT*dT*d[5mC]*dT*dG*kT*kG*kT) [compound 1075573]”, the “YAP1 (% UTC)” value is 72 % UTC.

Consider “1075829 (kA*k[5mC]*kT*d[5mC]*dA*dA*dT*dA*dG*dA*dT*d[5mC]*dA*kT*kT*kG; antisense) [compound 1075829]”, for which the “YAP1 (% UTC)” value is on record as 41 % UTC.
